{"source": "patent US20130303539A1", "about": "“COMPOUNDS WITH TRPV4 ACTIVITY, COMPOSITIONS AND ASSOCIATED METHODS THEREOF” (priority 2012, published 2013)", "key": {"retinal ganglion cell": {"system": "retinal ganglion cell", "assay": "Pressure-induced inward currents, High-Speed Pressure Clamp, voltage-clamped retinal ganglion cell", "format": "cell-based", "settings": "pressure steps from 10 mm Hg to 50 mm Hg", "experimental": "The cell was voltage clamped and stimulated with the High-Speed Pressure Clamp method, as detailed by Besch et al (Pflugers Arch. 2002 October; 445(1):161-6). This method consists of a specialized headstage coupled to a piezo element in the pressure/vacuum control valve. By balancing the access of pressure to the patch pipette, the device generates rapid and reproducible pressure steps of >±200 mm Hg. Channel activity is recorded in the cell-attached mode or the membrane is “zapped” into the outside-out configuration."}, "TRPV4": {"target": "TRPV4 (Mus musculus, UniProt Q9EPK8)", "sequence (Q9EPK8 whole entry)": "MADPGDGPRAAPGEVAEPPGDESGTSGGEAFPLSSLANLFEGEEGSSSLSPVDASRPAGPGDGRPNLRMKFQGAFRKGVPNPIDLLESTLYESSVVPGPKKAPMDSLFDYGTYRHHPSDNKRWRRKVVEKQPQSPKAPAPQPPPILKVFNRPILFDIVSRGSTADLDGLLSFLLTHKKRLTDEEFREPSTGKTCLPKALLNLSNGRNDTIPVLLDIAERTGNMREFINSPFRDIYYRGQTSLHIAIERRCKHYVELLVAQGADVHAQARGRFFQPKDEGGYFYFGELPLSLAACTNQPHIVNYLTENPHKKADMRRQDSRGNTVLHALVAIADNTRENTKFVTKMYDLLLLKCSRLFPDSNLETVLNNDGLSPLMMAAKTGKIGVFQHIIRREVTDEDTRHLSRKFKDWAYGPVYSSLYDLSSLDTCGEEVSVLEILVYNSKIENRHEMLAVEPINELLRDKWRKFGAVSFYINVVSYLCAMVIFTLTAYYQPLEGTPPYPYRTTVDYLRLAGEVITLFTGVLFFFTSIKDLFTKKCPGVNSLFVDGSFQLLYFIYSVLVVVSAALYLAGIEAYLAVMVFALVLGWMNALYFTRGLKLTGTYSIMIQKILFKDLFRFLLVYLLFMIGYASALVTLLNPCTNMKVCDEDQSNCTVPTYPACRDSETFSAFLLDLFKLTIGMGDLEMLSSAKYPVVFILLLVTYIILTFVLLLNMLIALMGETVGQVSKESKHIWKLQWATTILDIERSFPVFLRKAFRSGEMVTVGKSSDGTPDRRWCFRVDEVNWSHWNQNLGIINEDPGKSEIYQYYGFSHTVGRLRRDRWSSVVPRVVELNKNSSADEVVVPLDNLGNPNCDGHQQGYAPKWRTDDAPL", "assay": "TRPV4 agonist GSK-evoked [Ca++]i in retinal Müller glial cells", "format": "cell-based", "design": "endogenous in cells; host or cells: retinal Müller glial cells"}, "MB model of glaucoma": {"system": "MB model of glaucoma", "assay": "IOP time course after a single eye drop in the MB model of glaucoma", "format": "in vivo, mouse", "settings": "single dose eye drop", "experimental": "Specifically, microbeads (MBs) were injected into the anterior chamber of a mouse eye as described in Example 2 with PBS-injected eyes used as controls. Compound 1 (10 mg/kg body weight) (or PBS vehicle) was injected intraperitoneally (IP). […] IOP was measured in mice between 10:00 AM and 1:00 PM with the TonoLab rebound tonometer (Colonial Medical Supply, Franconia, NH/Tyolat, Helsinki, Finland). Mice were sedated with IP injection of Avertin with final amount calculated by weight (e.g., 0.5 ml for 21-24 g animals). Animals were placed on a jack stand platform and the tonolab was clamped on a ring stand and centered onto the mid-cornea. During measurements animal were neither restrained nor touched. Each eye was measured twenty consecutive times, the highest and lowest values were discarded and the values were averaged.\nFIG. 9 illustrates the short-term effects of a single dose of Compound 1 (eye drop) in the MB model of glaucoma. IOP was measured as described in Example 3 at the indicated time points after receiving a drop of Compound 1. Compound 1 reduced IOP beginning at 1 hour after dosing and continued through 6 hours after dosing.\nFIG. 10 illustrates a time course of Compounds 1, 2, 5 and Compound 2-HCl as well as a positive control compound, timolol, with regard to inhibition of IOP. The experiment was conducted as described in Example 9. Each of the TRPV4 antagonists reduced IOP with a similar time course. Specifically, Compounds 1, 2, 5 and Compound 2-HCl reduced IOP for at least 6 hours after dosing.\nFIG. 11 illustrates a time course of Compound 2-HCl activity. The experiment was conducted as described in Example 9. […] 2\nFIG. 12 illustrates a comparison of the time course of Compound 2-HCl and Compound 5. The experiment was conducted as described in Example 9."}, "[1]": {"system": "retinal neurons (RGCs) and glia (Müller cells)", "assay": "Hypotonic stimuli: cell swelling (change in cell area) and [Ca++]i", "format": "cell-based", "from_the_text": "FIG. 18A illustrates the effect of hypotonic stimuli on cell swelling as measured by change in cell area. Hypotonic stimuli were generated by replacing extracellular sodium levels to lower osmolarity from 300 mOsm to 190 mOsm."}, "retinal ganglion cells": {"system": "retinal ganglion cells", "assay": "RGC density in retinal wholemounts of the MB mouse model", "format": "in vivo", "experimental": "FIG. 2 confirms that the mouse model for glaucoma causes RGC degeneration. Specifically, microbeads (MBs) were injected into the anterior chamber of a mouse eye. The MBs increase intraocular IOP above 15 mm Hg by blocking outflow of the aqueous humor within the anterior chamber of the eye. MBs were reinjected as needed to maintain a high IOP, typically one injection every two weeks. Contralateral eyes were injected intraocularly with the vehicle PBS (phosphate buffered saline) as controls. […] IOP levels were measured at least twice weekly before and after intraocular injections. After injections, mice recovered for 48 hours before IOP measurements resumed. Following 4 or 8 weeks of IOP elevation, mice were intracardially perfused with 4% paraformaldehyde in 1×PBS to fix the retinas. Retinas were then removed and processed for immunohistochemistry (IHC). Whole retinas were rinsed with 1×PBS three times at room temperature then incubated in blocking buffer (1×PBS+1% BSA). […] The density of RGCs was imaged with a confocal microscope (Zeiss LSM 510) and quantified by counting NeuN-, CFP- and/or Tuj-1—labeled somata in the RGC layer of the retinal wholemount preparation. […]\nRGD density was quantified in retinas isolated from TuJ-1^+ mice and transgenic Thy1-CRP^+ transgenic mice that had been injected with either MBs or vehicle (PBS) then dosed with either compound 1 or vehicle (PBS). […] TuJ-1 was quantified by immunohistochemistry using a Tuj-1-specific antibody conjugated to a fluorescent Alexa 488 or Alexa 594 secondary antibody. […] For fluorescence immunocytochemistry, retinal wholemounts were washed in PBS, then placed for 30 min. to 1 hour in blocking solution (10 ml PBS, 30 μL Triton-X 100, 100 mg bovine serum albumin, 100 μL 10% w/v Na azide solution) in OCT (Ted Pella, Redding, Pa.). […]"}}}
{"smiles": "Cc1c(C(=O)Nc2cccc(C(F)(F)F)c2)cc(-c2ccccc2)n1CCCN1CCOCC1", "note": "[Compound 1, N-(3-(trifluoromethyl)phenyl)-2-methyl-1-(3-morpholinopropyl)-5-phenyl-1H-pyrrole-3-carboxamide]", "values": [{"measurement": "pressure-induced inward currents", "setting": "retinal ganglion cell", "result": "reversibly antagonized"}, {"measurement": "block of GSK-evoked [Ca++]i increase", "setting": "TRPV4", "result": "this effect is blocked"}, {"measurement": "reversibility of the effect on glial calcium levels", "setting": "TRPV4", "result": "reversible"}, {"measurement": "washout by superfusion with control saline", "setting": "TRPV4", "result": 10, "unit": "min"}, {"measurement": "onset of IOP reduction after dosing", "setting": "MB model of glaucoma", "result": 1, "unit": "h"}, {"measurement": "hypotonic stimuli-induced increase in [Ca++]i (FIG. 18B)", "setting": "[1]; hypotonic stimuli", "result": "inhibited"}, {"measurement": "cell swelling (change in cell area)", "setting": "[1]; osmolarity lowered from 300 mOsm to 190 mOsm", "result": "prevented hypotonic stimuli-mediated cell swelling to the same extent as BAPTA-AM"}, {"measurement": "TuJ-1+ cells in the alpha, beta and omega regions", "setting": "retinal ganglion cells; MB- or PBS-injected eyes, IP dosing", "result": "rescues RGCs across all regions of the retina"}, {"measurement": "CFP+ cells in the alpha, beta and omega regions", "setting": "retinal ganglion cells; Thy1-CFP transgenic mice, MB- or PBS-injected eyes, IP dosing", "result": "rescues RGCs across all regions of the retina"}, {"measurement": "density of RGCs (TuJ-1+ cells and Thy1:CFP+ cells)", "setting": "retinal ganglion cells; after 8 weeks of increased IOP, MB-injected mice", "result": "RGC loss was rescued"}]}
